Values of other authors, collected in US10912819B2, “Neuroprotective peptides derived from activity-dependent neuroprotective protein for treatment of neurological diseases” (priority 2016, dated 2021).
Like-named read-outs stand apart in the source and are kept apart here.

How the values were obtained:
[1] = not told; cited from earlier work
[2] = ambient temperatures and atmospheric pressures, cited from earlier work
cornea = conditions: Kusano et al. 2010; cited from earlier work
rabbits = conditions: cited from earlier work

Molecule | extent of permeation increase by preservative [1] | permeation in vitro in the presence of preservatives [1] | period of stability ([2]; Anhydrous) [years] | period of stability ([2]; Hemihydrate) [years] | effect on corneal permeability (cornea) | skin irritation (rabbits; rabbit skin, 24 hour exposure) | signs of toxicity (rabbits; rabbit, in vivo, 2000 mg/kg) | acute dermal LD50 (rabbits; rabbits) | mortality (rabbits; single dermal application of 2000 mg/kg) [%] | effect on cell survival (cornea)
NC(=O)CC[C@@H]1NC(=O)[C@H](Cc2ccccc2)NC(=O)[C@H](Cc2ccc(O)cc2)NC(=O)CCSSC[C@@H](C(=O)N2CCC[C@H]2C(=O)N[C@H](CCCN=C(N)N)C(=O)NCC(N)=O)NC(=O)[C@H](CC(N)=O)NC1=O [DDAVP, desmopressin acetate] | chlorobutanol<benzalkonium<sorbate | always increased | – | – | – | – | – | – | – | –
CC(C)(O)C(Cl)(Cl)Cl [chlorobutanol, trichloro-2-methyl-2-propanol] | – | – | 3 | 5 | not chlorobutanol affect corneal permeability | Non-irritant | no signs of toxicity | greater than 2000 mg/kg | 10 | –
benzalkonium chloride | – | – | – | – | affect corneal permeability | – | – | – | – | adversely affected cell survival
